Measurements taken from article PMC4184574, “Enantioselectivity in the cytochrome P450-dependent conversion of tegafur to 5-fluorouracil in human liver microsomes” (Pharmacology Research & Perspectives, 2013).

Biological target: T1, CYP2A6 (Homo sapiens, UniProt P11509)
T1 sequence (P11509 1-494): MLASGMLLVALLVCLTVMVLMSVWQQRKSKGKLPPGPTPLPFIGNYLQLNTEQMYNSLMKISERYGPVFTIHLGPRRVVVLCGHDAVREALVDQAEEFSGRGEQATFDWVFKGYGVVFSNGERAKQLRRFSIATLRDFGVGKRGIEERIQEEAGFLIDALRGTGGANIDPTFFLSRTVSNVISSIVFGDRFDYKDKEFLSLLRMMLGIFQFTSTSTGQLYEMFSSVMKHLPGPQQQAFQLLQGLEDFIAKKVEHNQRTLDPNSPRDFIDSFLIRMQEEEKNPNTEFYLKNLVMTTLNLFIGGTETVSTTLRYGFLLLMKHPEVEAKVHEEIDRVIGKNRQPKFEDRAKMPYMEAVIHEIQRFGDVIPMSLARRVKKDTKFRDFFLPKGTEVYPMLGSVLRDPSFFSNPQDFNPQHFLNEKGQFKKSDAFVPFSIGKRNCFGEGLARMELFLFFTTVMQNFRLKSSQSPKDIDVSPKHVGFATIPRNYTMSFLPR
Assay: 5-FU formation from FT enantiomers by cDNA-expressed CYP2A6 (kinetics, velocity, RAF contribution)
Conditions: for CYP contribution: CYP2A6, RAF method, 30 μmol/L
Text: Human hepatic 9000g supernatant (S9) and cytosolic fraction were purchased from XenoTech, LLC. (pooled preparations from 20 donors; Kansas City, KS). Human hepatic microsomes from five individuals (HG32, HH94, HH81, HH74, and HH31), a pooled preparation from 150 donors, and microsomes prepared from insect cell lines expressing CYP1A2, 2A6, 2B6, 2C8, 2C9, 2C19, 2D6, 2E1, and 3A4 were purchased from BD Gentest. Insect microsomes expressing only NADPH-P450 oxidoreductase and cytochrome b5 were also used as control. These enzymes were stored at −80°C until use.
Metabolic reaction by S9 and cytosol (each 2 mg protein/mL) was carried out in 100 mmol/L phosphate (pH 7.4) because TPase requires phosphate ions for catalyzing the reaction. In some cases, insect microsomes expressing recombinant CYP isoforms (20 pmol/mL) were added to the incubation mixtures in either 50, 100 mmol/L phosphate (pH 7.4) or 100 mmol/L Tris (pH 7.4), depending on supplier's recommendation. Microsomal protein concentrations of all cDNA-expressed CYPs were adjusted to 0.5 mg protein/mL by adding control microsomes expressing NADPH-P450 oxidoreductase and cytochrome b5. The reaction for the assay of FT metabolism was initiated by adding the substrate, following preincubation for 5 min at 37°C. After incubation at 37°C, the reaction was stopped by adding three volumes of ice-cold acetonitrile. The incubation times of microsomes, cytosol, and S9 were 15, 15, and 30 min, respectively. After centrifugation, the supernatant was collected and stored at −80°C until the determination of 5-FU. Because a small portion of FT is nonenzymatically converted to 5-FU, the content of 5-FU spontaneously formed was subtracted from total yield obtained after incubation to correct the activity. The spontaneous degradation of FT to 5-FU was evaluated using enzymes inactivated by heating them at 100°C for 5 min.
Concentration of 5-FU was determined using a LC/MS/MS system. The analytical system consisted of a HP1100 liquid chromatograph (Agilent Technologies, CA) coupled with an API4000 triple-quadrupole mass spectrometer (Applied Biosystems, CA) equipped with Turbo V source and ESI interface. Sample separation was performed using an Unison UK-Amino column (2.0 mm i.d. × 100 mm, 3 μm; Imtakt, Kyoto, Japan) at a flow rate of 0.2 mL/min at 40°C. The mobile phase consisted of 10 mmol/L ammonium acetate/acetonitrile 10:90 (v/v). […] For quantification of 5-FU, the calibration curves were linear over the range 2–1000 ng/mL.
Kinetic studies were performed using microsomes from five human livers (HG32, HH94, HH81, HH74, and HH31), cDNA-expressed CYP isoforms, or pooled human hepatic cytosol. In determining kinetic parameters, FT concentration ranged from 0.03 to 10 mmol/L. All reactions were performed in a linear range of 5-FU formation with respect to protein or CYP concentrations and incubation time.
Intrinsic clearance (CLint) was calculated as a ratio of V/S where V and S were the metabolite formation rate and the concentration of a probe substrate for CYP isoform, respectively, when the substrate concentration was well below the Km value. The RAF for each CYP isoform was calculated according to equation (3) (Venkatakrishnan et al. [2000]). [drawing 3] (3) n = 1A2, 2A6, 2C19, or 2E1.
The contribution of CYPn to the metabolism of R- and S-FT at their concentration of 30 μmol/L was subsequently calculated using equation (4). [drawing 4] (4) VCYPn = 5-FU formation rate in cDNA-expressed CYPn.

SMILES	CYP contribution	CLint (cDNA-expressed CYP2A6)	Km (cDNA-expressed CYP2A6)	Vmax (cDNA-expressed CYP2A6)
O=c1[nH]c(=O)n([C@H]2CCCO2)cc1F [R-FT]	87.6%	26 nL min^−1 pmol^−1 CYP	170 ± 10 µM	4.5 ± 0.1 pmol min^−1 pmol^−1 CYP
O=c1[nH]c(=O)n([C@@H]2CCCO2)cc1F [S-FT]	84.8%	4.9 nL min^−1 pmol^−1 CYP	–	5.6 ± 0.3 pmol min^−1 pmol^−1 CYP
